Test results from patent US7618946B2, “Analgesic compounds, extracts containing same and methods of preparation” (Griffith University, priority 2003, dated 2009).
“Also recorded” adds a separate entry of the source.

How the values were obtained:
FCA-rats [1] = assay: paw pressure test in rat model of inflammatory pain (FCA); format: in vivo, Sprague-Dawley rats; settings: i.v. bolus; for dose-response of antinociceptive effect (AUC versus dose): ipsilateral hindpaw, FIG. 68
Protocol: Adult male Sprague-Dawley rats were housed in a temperature controlled room (21±2° C.) with a 12 h/12 h light/dark cycle and free access to both food and water. Ethical approval for this study was obtained from the Animal Experimentation Ethics Committee of The University of Queensland.
Inflammation of the rat hindpaw was induced by intra-plantar (i.pl.) injection of Freund's Complete Adjuvant (FCA, 0.15 mL) whilst rats were under brief 3% isoflurane: 97% oxygen inhalational anaesthesia. Inflammatory pain was assessed using the paw pressure test (see below for details). The test compounds were administered on either day 5 or day 6 following i.pl. FCA administration.
Jugular vein cannulation was performed whilst rats were anaesthetised with 3% isoflurane: 97% O2 inhalational anaesthesia maintained using a calibrated Trilene vapouriser. Polyethylene cannulae (previously filled with heparinised saline) were implanted into the right common jugular vein for i.v. drug dosing. Cannulae were exteriorized by subcutaneous (s.c.) tunneling to an incision made in the interscapular area, and protected by a stainless steel spring, the base of which was positioned in a subcutaneous pocket between the scapulae. Incisions were closed with sterile silk sutures. After surgery, rats were housed singly in metabolic cages and were allowed to recover post-operatively for a minimum of 2 h before further experimentation. Food and water were available ad libitum during the recovery period.
Each of the compounds F70.3.2 and F70.3.6 were dissolved in sterile saline. The compounds of interest were administered initially in a dose of 0.01 mg/kg in an injection volume of 0.5 mL. The other i.v. doses administered in this preliminary study were as follows:
Control rats received bolus doses of i.v. saline. Antinociceptive Testing: Paw Pressure Test
For the paw pressure test, rats were gently restrained under a towel, and incremental mechanical pressure (maximum=250 g) was applied to the dorsal surface of the hindpaw. The pressure required to elicit paw withdrawal, the paw pressure threshold (PPT), was determined. The mean of 3 consecutive measurements, separated by 10 s, was determined. The same procedure was then performed on the contralateral side with the sequence of sides being alternated to preclude order effects. Similarly, rats were gently restrained under a towel for the quantification of paw volumes using a plethysmometer.
Following administration of i.v. bolus doses of each of the test compounds (F70.3.2 and F70.3.6), paw withdrawal thresholds (g) were normalized by subtraction of the individual baseline PWT values quantified immediately prior to drug administration. The area under the normalized PWT versus time (AUC) was calculated using the trapezoidal rule. Dose-response curves were constructed by plotting the AUC values versus the i.v. dose for each of F70.3.2 and F70.3.6.

FCA-rats [2] = assay: side effects observed after i.v. bolus doses in FCA-rats; format: in vivo, Sprague-Dawley rats; design: key to Intensity: 0 = none; 1 = mild; 2 = moderate; 3 = severe; 4 = extreme
Protocol: Each of the compounds F70.3.2 and F70.3.6 were dissolved in sterile saline. The compounds of interest were administered initially in a dose of 0.01 mg/kg in an injection volume of 0.5 mL. The other i.v. doses administered in this preliminary study were as follows: […]

Male Quackenbush mice = assay: mouse formalin assay; format: in vivo
Protocol: The formalin assay involves the subcutaneous injection of a small amount of formalin into the fore or hind paw of a rat or mouse and the behavioural response to this injection is recorded as a measure of pain response.
The formalin assay was preformed on male mice using morphine, and other compounds of interest, as an analgesic, to test the viability and reliability of the assay as a means of measuring pain response in mice.
Male Quackenbush mice weighing 25-35 g were used. They were housed in colony cages (400×300×130 mm; Wiretainers) with ad libitum access to food (standard rat/mouse pellets; Norco Feeds) and water. For short term storage a maximum of 15-16 mice were housed per cage while for longer periods this number was reduced to less than 10 mice per cage. Bedding material was wood shavings or more commonly recycled paper pellets (Breeders Choice).
Formalin (Ajax) was supplied as solution of approximately 37.5% formaldehyde containing 10% methanol as a preservative. […]
Morphine and other compounds of interest were injected in a volume of 10 mL/kg intraperitoneally (ip) 30 minutes prior to formalin administration. […] The sole behavioural response recorded was the amount of time the animal spent biting or licking the injected paw or leg per 5 minute block was recorded. […]
Using this value a percentage pain inhibition can be calculated using the formula:—

[3] = cited from earlier work; for inhibition of acetic acid induced writhing: 10 and 30 mg/kg (sc) [56]; for ED50: acetic acid writhing test [52]
mice [4] = settings: cited from earlier work; for analgesia in both phases of the formalin test: [61]; for response in both early and late phases: known analgesics [61]; for effect on late phase: anti-inflammatory compounds and steroids [61]
mice [5] = settings: mice [59]; cited from earlier work
mice [6] = settings: mice [59]; cited from earlier work; remark: listed apart in the source
[7] = i.v. 0.005 mg/kg, Apnoea, Table 19
[8] = i.v. 0.02 mg/kg, Apnoea, Table 19
[9] = i.v. 0.02 mg/kg, Staring, Table 19
[10] = i.v. 0.005 mg/kg, Body shaking, Table 20
[11] = i.v. 0.01 mg/kg, Body shaking, Table 20
[12] = i.v. 0.02 mg/kg, Staring, Table 20
[13] = i.v. 0.05 mg/kg, Apnoea, Table 20
[14] = i.v. 0.05 mg/kg, Staring, Table 20

Q: What does the source list for `CC(=O)OCC12C(O)CC3(C)C(=CCC4C5(C)CCC(OC6OC(C(=O)O)C(O)C(OC7OCC(O)C(O)C7O)C6OC6OC(CO)C(O)C(O)C6O)C(C)(C)C5CCC43C)C1CC(C)(C)C(OC(=O)c1ccccc1)C2O` [Compound F70.3.2, 3-O-β-D-xylopyranosyl(1→3)-[β-D-galactopyranosyl(1→2)]-β-D-glucuronopyranosyl-21-O-benzoyl-28-O-acetyl barringtogenol C]?
A: antinociception, contralateral (non-inflamed) hindpaw (FCA-rats [1]): absence of antinociception; antinociception, ipsilateral (inflamed) hindpaw (paw withdrawal threshold) (FCA-rats [1]; FIG. 65): dose-related increase in the antinociceptive potency; dose-response of antinociceptive effect (AUC versus dose) (FCA-rats [1]): distinct increase and then plateau; Duration (FCA-rats [2]; [7]): 0.5 min; Intensity (FCA-rats [2]; [7]): 1; No of rats observed with side-effect (FCA-rats [2]; [7]): 1/3; Onset (FCA-rats [2]; [7]): 180 min; Side effect (FCA-rats [2]; i.v. 0.005 mg/kg, Table 19): Apnoea; Duration (FCA-rats [2]; [8]): 15 min; Intensity (FCA-rats [2]; [8]): 1; No of rats observed with side-effect (FCA-rats [2]; [8]): 1/3; Onset (FCA-rats [2]; [8]): 30 min; Duration (FCA-rats [2]; [9]): 15 min; Intensity (FCA-rats [2]; [9]): 1; No of rats observed with side-effect (FCA-rats [2]; [9]): 1/3; Onset (FCA-rats [2]; [9]): 30 min; Side effect (FCA-rats [2]; i.v. 0.02 mg/kg, Table 19, 0.02 mg/kg): Apnoea; also recorded: Staring

Q: What does the source list for `CC(=O)OC1C(OC2OCC(OC(=O)c3ccccc3)C(OC(=O)C(C)C(C)OC(=O)c3ccccc3)C2O)C(C)(C)CC2C3=CCC4C5(C)CCC(OC6OC(C(=O)O)C(O)C(OC7OCC(O)C(O)C7O)C6OC6OC(CO)C(O)C(O)C6O)C(C)(C)C5CCC4(C)C3(C)CC(O)C21CO` [Compound F70.3.6, 3-O-β-D-xylopyranosyl(1→3)-[β-D-galactopyranosyl(1→2)]-β-D-glucuronopyranosyl-21-O-[3-(3-benzoyl-2-methylbutanoyl)-4-benzoyl-α-L-arabinopyranosyl]-22-O-acetyl barringtogenol C]?
A: antinociception, contralateral (non-inflamed) hindpaw (FCA-rats [1]): absence of antinociception; antinociception, ipsilateral hindpaw (FCA-rats [1]; dose range 0.002-0.01 mg/kg, FIG. 66): dose-related increase in the antinociceptive potency; antinociceptive response, ipsilateral hindpaw, on further increases in dose (FCA-rats [1]; doses above 0.01 mg/kg): decreased rather than an increased antinociceptive response; dose-response of antinociceptive effect (AUC versus dose) (FCA-rats [1]): distinct increase and then plateau; Duration (FCA-rats [2]; [10]): 5 min; Intensity (FCA-rats [2]; [10]): 1; No of rats observed with side-effect (FCA-rats [2]; [10]): 1/3; Onset (FCA-rats [2]; [10]): 15 min; Side effect (FCA-rats [2]; i.v. 0.005 mg/kg, Table 20): Body; Duration (FCA-rats [2]; [11]): 5 min; Intensity (FCA-rats [2]; [11]): 1; No of rats observed with side-effect (FCA-rats [2]; [11]): 1/3; Onset (FCA-rats [2]; [11]): 30 min; Side effect (FCA-rats [2]; i.v. 0.01 mg/kg, Table 20): Body; Duration (FCA-rats [2]; [12]): 15 min; Intensity (FCA-rats [2]; [12]): 1; No of rats observed with side-effect (FCA-rats [2]; [12]): 1/3; Onset (FCA-rats [2]; [12]): 45 min; Side effect (FCA-rats [2]; i.v. 0.02 mg/kg, Table 20): Staring; Duration (FCA-rats [2]; [13]): 30 min; Intensity (FCA-rats [2]; [13]): 1; No of rats observed with side-effect (FCA-rats [2]; [13]): 1/1; Onset (FCA-rats [2]; [13]): 5 min; Duration (FCA-rats [2]; [14]): 15 min; Intensity (FCA-rats [2]; [14]): 1; No of rats observed with side-effect (FCA-rats [2]; [14]): 1/1; Onset (FCA-rats [2]; [14]): 30 min; Side effect (FCA-rats [2]; i.v. 0.05 mg/kg, Table 20, 0.05 mg/kg, onset 5 min, lasting 30 min): Apnoea; Side effect (FCA-rats [2]; i.v. 0.05 mg/kg, Table 20, 0.05 mg/kg, onset 30 min, lasting 15 min): Staring

Q: With `C[S+](C)[O-]` [DMSO control, dimethyl sulfoxide] as the compound, how does the “reduction of pain response by DMSO” value (Male Quackenbush mice; high dose (5%) DMSO) read?
A: 57%

Q: With `CC1(C)CC[C@]2(C(=O)O[C@@H]3O[C@H](CO)[C@@H](O)[C@H](O)[C@H]3O)CC[C@]3(C)C(=CC[C@@H]4[C@@]5(C)CC[C@H](O[C@@H]6O[C@H](CO)[C@@H](O)[C@H](O)[C@H]6O)[C@@](C)(C(=O)O)[C@@H]5CC[C@]43C)[C@@H]2C1` [Dianoside A] as the compound, how does the “inhibition of acetic acid induced writhing” value [3] read?
A: significantly inhibit

Q: For `CC1(C)CC[C@]2(C(=O)O[C@@H]3O[C@H](CO[C@@H]4O[C@H](CO)[C@@H](O)[C@H](O)[C@H]4O)[C@@H](O)[C@H](O[C@@H]4O[C@H](CO)[C@@H](O)[C@H](O)[C@H]4O)[C@H]3O)CC[C@]3(C)C(=CC[C@@H]4[C@@]5(C)CC[C@H](O[C@@H]6O[C@H](CO)[C@@H](O)[C@H](O)[C@H]6O)[C@@](C)(C(=O)O)[C@@H]5CC[C@]43C)[C@@H]2C1` [Dianoside B], which “inhibition of acetic acid induced writhing” value [3] is on record?
A: significantly inhibit

Q: Which “analgesia in both phases of the formalin test” value (mice [4]) does the source give for `CC(=O)Oc1ccccc1C(=O)O` [aspirin] here?
A: analgesic in a dose dependent manner in both phases

Q: And the ED50 [3]?
A: 125 mg/kg

Q: What about the “inhibition of acetic acid induced writhing” value (mice [5]) of the same compound?
A: 80%

Q: And the “inhibition of p-phenylquinone induced writhing” value (mice [6])?
A: 85%

Q: Which “response in both early and late phases” value (mice [4]) does the source give for `COc1ccc2c3c1O[C@H]1[C@@H](O)C=C[C@H]4[C@@H](C2)N(C)CC[C@@]341` [codeine] here?
A: can be reduced

Q: For `C[C@]12CCC(=O)C=C1CC[C@@H]1[C@@H]2[C@@H](O)C[C@@]2(C)[C@H]1CC[C@]2(O)C(=O)CO` [hydrocortisone], which “effect on late phase” value (mice [4]) is on record?
A: affected

Q: Which “effect on late phase” value (mice [4]) does the source give for `COc1ccc2c(c1)c(CC(=O)O)c(C)n2C(=O)c1ccc(Cl)cc1` [indomethacin] here?
A: affected

Q: What does the source list for `CN1CC[C@]23c4c5ccc(O)c4O[C@H]2[C@@H](O)C=C[C@H]3[C@H]1C5` [morphine]?
A: ED50 (Male Quackenbush mice; Mus musculus, ip, read-out: ED50 (morphine dose response curve, pain inhibition)): 4.8 mg/kg; analgesia induced (mice [4]; at 6 mg/kg [64]): almost complete analgesia; response in both early and late phases (mice [4]): can be reduced; ED50, entire experimental period (mice [4]; subcutaneous, entire experimental period [63]): 4.8 mg/kg

Q: Which “effect on late phase” value (mice [4]) does the source give for `COc1ccc2cc([C@H](C)C(=O)O)ccc2c1` [naproxen] here?
A: affected

Q: For `CN1CCOC(c2ccccc2)c2ccccc2C1` (centres unmarked) [nefopam], which “response in both early and late phases” value (mice [4]) is on record?
A: can be reduced

Q: For `Cc1ccccc1C(OCCN(C)C)c1ccccc1` (centres unmarked) [orphendarine], which “response in both early and late phases” value (mice [4]) is on record?
A: can be reduced

Q: With `CC(=O)Nc1ccc(O)cc1` [paracetamol] as the compound, how does the “analgesia in both phases of the formalin test” value (mice [4]) read?
A: analgesic in a dose dependent manner in both phases

Q: For barbatoside A, which ED50 [3] is on record?
A: 95 mg/kg
